Experimental findings from ChEMBL document CHEMBL1159195, “Purine and nucleoside metabolites from the Antarctic sponge Isodictya erinacea” (1998) are described below.

Experiment [1] relates to Escherichia coli. Briefly: Antimicrobial activity against […] coli at 120 ug/disk after 48 hrs by paper disk method. The format is functional, organism-based.
The subject of experiment [2] is Staphylococcus aureus. Briefly: Antimicrobial activity against Staphylococcus aureus at 120 ug/disk after 48 hrs by paper disk method. The class given is functional, organism-based.
Experiment [3] concerns Perknaster fuscus. Briefly: Deterrent activity against Perknaster fuscus assessed as induction of sustained retractions of tube-feet by sea-star deterrent assay. The class given is functional, organism-based.
The subject of experiment [4] is L5178Y. Put plainly: Cytotoxicity against mouse L5178Y cells by trypan blue exclusion method. The class given is functional. As to conditions: read-out: LD50 (the source's name).
The test system of experiment [5] is Staphylococcus epidermidis. Briefly: Antimicrobial activity against Staphylococcus epidermidis at 120 ug/disk after 48 hrs by paper disk method. The format is functional, organism-based.

Values after ≈ are worked out from the molar mass of the structure shown. Active and inactive are the calls of the source. The rule behind the calls is not given here.

With `O=C(O)CCNc1ncnc2[nH]c(=O)[nH]c12` [ERINACEAN], the outcome in experiment [1], in experiment [2] and in experiment [5] was Active. Also, the result in experiment [3] was inactive. Also, the CC50 in experiment [4] was found to be 50 µg/mL (≈ 224 µM).

Consider `Nc1ccn([C@H]2C[C@H](O)[C@@H](CO)O2)c(=O)n1`, for which, in experiment [3], the outcome was inactive.

With `O=Cc1ccc(O)cc1`, the outcome in experiment [3] was Active.

For `Cn1c(N)nc2c(ncn2C)c1=O`, the result in experiment [3] was inactive.

For the compound `O=c1ccn([C@@H]2O[C@H](CO)[C@@H](O)[C@H]2O)c(=O)[nH]1`, in experiment [3], the result was inactive.

On to `Cn1cnc2ncnc(N)c21`, for which the result in experiment [3] was inactive.

`O=c1[nH]cnc2c1ncn2[C@@H]1O[C@H](CO)[C@@H](O)[C@H]1O`: the outcome in experiment [3] was inactive.
